Source: patent US20080019931A1, “Method and composition for producing enhanced fingernails” (PROSTRONG, INC, priority 2004, published 2008)

Test: Solubility in water
Assay type: physicochemical

Structure (SMILES): O=P([O-])([O-])P(=O)([O-])[O-].[Ca+2].[Ca+2] [Calcium Hypophosphate]
- solubility in water: soluble in water
